Measured values published in article PMC5374206, “Anti-bacterial and Anti-biofilm Evaluation of Thiazolopyrimidinone Derivatives Targeting the Histidine Kinase YycG Protein of Staphylococcus epidermidis” (Frontiers in Microbiology, 2017).
In brackets after ≈: the same amount, converted by molar mass. Like-named read-outs stand apart in the source and are kept apart here.

Tests used:
[1] = system: methicillin-resistant S. aureus (MRSA) clinical isolates; assay: MIC and MBC against clinical MRSA isolates; format: cell-based; settings: Staphylococcus aureus
Experimental: S. epidermidis ATCC 12228 (biofilm negative), S. epidermidis ATCC 35984 (biofilm positive), S. aureus ATCC 49230 and Escherichia coli ATCC 25922 were used in this study. Six clinical methicillin-resistant S. aureus (MRSA) isolates were collected from the Department of Clinical Laboratory, Shanghai General Hospital, School of Medicine, Shanghai Jiaotong University, China. Staphylococcal strains were grown in tryptic soy broth (TSB; Oxoid Ltd., Basingstoke, England), and E. coli strains were grown in Luria-Bertani broth medium. Mueller-Hinton broth (MHB; Oxoid Ltd., Basingstoke, England) was used for antimicrobial susceptibility testing. Vancomycin and ampicillin were obtained from the Sigma Chemical Co. (St Louis, MO, USA).
The MIC assays of the derivatives of compound 5 against S. epidermidis, S. aureus, MRSA and E. coli were performed by using the methods described previously by Wiegand et al. ([2008]). In brief, two-fold serial dilutions of the derivatives were prepared in tubes containing 4 mL MHB medium, yielding final concentrations from 200 to 0.78 μM. Bacterial cultures were grown overnight and adjusted so that the bacterial suspension turbidity was equivalent to a 0.5 McFarland standard (~1 × 10^8 CFU/mL) and further diluted to 1:200 into MHB medium. The contents in the tubes were mixed thoroughly and incubated at 37°C with shaking at 220 rpm for 16–20 h. The MIC endpoint was defined as the lowest concentration at which there was no visible growth in the tubes. The MBC values were assessed by plating 100 μL samples from each negative (no visible bacterial growth) culture tube from the MIC assays onto blank MHB agar plates. After incubation at 37°C for 24 h, the bacterial colonies on the plates were counted. The MBC was the concentration at which a 99.9% reduction of the original inoculum was observed (Pridmore et al., [2011]). In this assay, all the experiments were performed three times.

[2] = Aqueous solubility observation; format: physicochemical; settings: 200 μM; precipitated after incubation at 37°C for 12 h; result in words
[3] = MRSA strain 66, ST239, read-out: MIC
[4] = MRSA strain 69, ST217, read-out: MIC
[5] = MRSA strain 141, ST5, read-out: MIC
[6] = MRSA strain 226, ST59, read-out: MIC
[7] = MRSA strain 258, ST239, read-out: MIC
[8] = MRSA strain 260, ST764, read-out: MIC
[9] = range over six isolates, read-out: MICs against six MRSA clinical isolates

Row | Compound | MBC ([1]; MRSA strain 66, ST239) [µM] | MIC [1, 3] [µM] | MBC ([1]; MRSA strain 69, ST217) [µM] | MIC [1, 4] [µM] | MBC ([1]; MRSA strain 141, ST5) [µM] | MIC [1, 5] [µM] | MBC ([1]; MRSA strain 226, ST59) [µM] | MIC [1, 6] [µM] | MBC ([1]; MRSA strain 258, ST239) [µM] | MIC [1, 7] [µM] | MBC ([1]; MRSA strain 260, ST764) [µM] | MIC [1, 8] [µM] | MIC [1, 9] [µM] | aqueous solubility [2]
1 | CCOC(=O)C1=C(c2ccccc2)N=c2sc(=Cc3ccc(-c4cccc(C(=O)O)c4)o3)c(=O)n2C1c1ccc(F)cc1 (stereo not drawn) [H5-32, 2-[5-(3-carboxy-phenyl)-furan-2-ylmethylene]-5-(4-fluoro-phenyl)-3-oxo-7-phenyl-2,3-dihydro-5H-thiazolo[3,2-a]pyrimidine-6-carboxylic acid ethyl ester] | 100 (≈ 59.5 µg/mL) | 3.13 (≈ 1.86 µg/mL) | 50 (≈ 29.7 µg/mL) | 3.13 (≈ 1.86 µg/mL) | 100 (≈ 59.5 µg/mL) | 6.25 (≈ 3.72 µg/mL) | 50 (≈ 29.7 µg/mL) | 6.25 (≈ 3.72 µg/mL) | 200 (≈ 119 µg/mL) | 3.13 (≈ 1.86 µg/mL) | 100 (≈ 59.5 µg/mL) | 6.25 (≈ 3.72 µg/mL) | 3.13 to 6.25 (≈ 1.86 to 3.72 µg/mL) | 
2 | O=C(O)c1cccc(-c2ccc(C=c3sc4n(c3=O)C(c3ccc(F)cc3)C=C(c3ccccc3)N=4)o2)c1 (stereo not drawn) [H5-33, 3-{5-[5-(4-fluoro-phenyl)-3-oxo-7-phenyl-5H-thiazolo [3,2-a]pyrimidin-2-ylidenemethyl]-furan-2-yl}-benzoic acid] | 200 (≈ 105 µg/mL) | 6.25 (≈ 3.27 µg/mL) | 50 (≈ 26.1 µg/mL) | 6.25 (≈ 3.27 µg/mL) | 200 (≈ 105 µg/mL) | 6.25 (≈ 3.27 µg/mL) | 200 (≈ 105 µg/mL) | 6.25 (≈ 3.27 µg/mL) | 200 (≈ 105 µg/mL) | 6.25 (≈ 3.27 µg/mL) | 200 (≈ 105 µg/mL) | 6.25 (≈ 3.27 µg/mL) | 3.13 to 6.25 (≈ 1.64 to 3.27 µg/mL) | 
3 | CCOC(=O)C1=C(c2ccccc2)N=c2sc(=Cc3ccc(-c4ccc(C(=O)O)cc4)o3)c(=O)n2C1c1ccc(Cl)cc1 (stereo not drawn) [H5-34, 2-[5-(4-carboxy-phenyl)-furan-2-ylmethylene]-5-(4-chloro-phenyl)-3-oxo-7-phenyl-2,3-dihydro-5H-thiazolo[3,2-a]pyrimidine-6-carboxylic acid ethyl ester] | 200 (≈ 122 µg/mL) | 3.13 (≈ 1.91 µg/mL) | 50 (≈ 30.6 µg/mL) | 6.25 (≈ 3.82 µg/mL) | 200 (≈ 122 µg/mL) | 6.25 (≈ 3.82 µg/mL) | 100 (≈ 61.1 µg/mL) | 6.25 (≈ 3.82 µg/mL) | 200 (≈ 122 µg/mL) | 6.25 (≈ 3.82 µg/mL) | 200 (≈ 122 µg/mL) | 6.25 (≈ 3.82 µg/mL) | 3.13 to 6.25 (≈ 1.91 to 3.82 µg/mL) | limited aqueous solubility
4 | CCOC(=O)C1=C(c2ccccc2)N=c2sc(=Cc3ccc(-c4ccc(C(=O)O)cc4)o3)c(=O)n2C1c1ccc(F)cc1 (stereo not drawn) [H5-35, 2-[5-(4-carboxy-phenyl)-furan-2-ylmethylene]-5-(4-fluoro-phenyl)-3-oxo-7-phenyl-2,3-dihydro-5H-thiazolo[3,2-a]pyrimidine-6-carboxylic acid ethyl ester] | 200 (≈ 119 µg/mL) | 3.13 (≈ 1.86 µg/mL) | 50 (≈ 29.7 µg/mL) | 6.25 (≈ 3.72 µg/mL) | 200 (≈ 119 µg/mL) | 6.25 (≈ 3.72 µg/mL) | 100 (≈ 59.5 µg/mL) | 6.25 (≈ 3.72 µg/mL) | 200 (≈ 119 µg/mL) | 6.25 (≈ 3.72 µg/mL) | 200 (≈ 119 µg/mL) | 6.25 (≈ 3.72 µg/mL) | 3.13 to 6.25 (≈ 1.86 to 3.72 µg/mL) | limited aqueous solubility
